Values joined by “and” are separate entries in the source; they are usually repeats but may differ in a detail not shown here. Equal entries are not always repeated.
How the values were obtained:
[1] = MTT cytotoxicity in combination with micelles; assay type: cell-based; details: dog, MDCKII wildtype and hNPC1L1/MDCKII cells, Figure S2, read-out: LC50 in combination with micelles
Procedure: (§1) MDCKII, hNPC1L1/MDCKII, and HepG2 cells were seeded in 96-well microtiter plates on day 0 at densities of 3000 cells/well. On day 1, tested compounds (73 mM stock solution in DMSO) were added in five consecutive 10-fold dilutions (10^−8 to 10^−4 mol/L) and incubated for 72 h. Cytotoxicity of the compounds was assessed on day 4 by the MTT cell proliferation assay (Sigma–Aldrich, Germany) which detects mitochondrial dehydrogenase activity in viable cells. The results are expressed as LC50 and the values for each compound were calculated from dose–response curves using linear regression analysis. Each concentration was tested in quadruplicate in three independent experiments. Toxicity of the compounds in combination with micelles was also tested using the same method. MDCKII and hNPC1L1/MDCKII were seeded in 96-well microtiter plates (150 μL medium/well) at a density of 2 × 10^5 cells/mL medium 24 h before the experiment. Micelles were prepared according to the modified method reported by Field et al.. In brief, 0.25 mM oleic acid, 50 μM cholesterol, 10 μM compactin, 50 μM mevalonate, 5 mM Na-taurocholate (Sigma–Aldrich, Germany) in DMEM/10% FCS were mixed and sonicated. Following the micellar formation, compounds 1, 5, 6, and 5/6 (70:30) (73 mM stock solution in DMSO) were added to the medium and vortexed to obtain the final concentrations of the compounds (25, 50, 100, 150, 200 μM) and applied to the cells for 1 h. Thereafter, cytotoxicity was determined using the MTT assay.
Figure S2. In vitro cytotoxicity of the compounds 5, 6, and 5/6 (70:30) in combination with micelles. Cytotoxicity of the newly synthesized compounds was determined in (A) MDCKII wildtype and (B) hNPC1L1/MDCKII cells. The cells were incubated with the indicated concentrations of the compounds in Medium B (0.25 mM oleic acid, 50 μM free cholesterol, 10 μM compactin, 50 μM mevalonate, 5 mM Na-taurocholate in DMEM supplemented with 5% LPDS) for 1 h. The results are expressed as percentage of the survival of cells treated with the compound compared to untreated cells. Data represent mean ± S.E.M. of three independent experiments.

[2] = MTT cytotoxicity assay in MDCKII wild type cells; assay type: cell-based; details: dog, MDCKII wild type cells, read-out: LC50, MDCKII
Procedure: (§2) Cytotoxicity of amino alcohols 5, 6 and their diastereoisomeric mixture 5/6 was analyzed using MTT cell proliferation assay and the LC50 values were determined in MDCKII wild type, hNPC1L1/MDCKII, and HepG2 cells (Table 2). MDCKII cells stably expressing human Niemann-Pick C1-like protein 1 (hNPC1L1/MDCKII) (Figure S1) are a pharmacologically validated system for investigating NPC1L1-mediated cholesterol uptake. The LC50 values were higher than 100 μM and considered nontoxic in all three cell lines. […] In addition, we tested the in vitro cytotoxicity of ezetimibe 1 and compounds 5, 6, and 5/6 (70:30) in combination with micelles and found all LC50 values to be above 100 μM (Figure S2).
(§3) Madin–Darby Canine Kidney II (MDCKII) cells, MDCKII cells stably expressing human NPC1L1 (hNPC1L1/MDCKII), and human HepG2 liver cells were maintained in DMEM (Dulbecco's Modified Eagle Medium, Invitrogen, USA) containing 100 units/mL penicillin and 100 μg/mL streptomycin supplemented with 10% FCS (Sigma–Aldrich, Germany). The cells were grown at 37 °C in a humidified 5% CO2 incubator. Stable transfection of MDCKII cells with human NPC1L1 protein was performed using Lipofectamine LTX (Invitrogen, USA) according to the manufacturer's protocol. Selection with 1 mg/mL G418 (Sigma–Aldrich, Germany) was started 2 days after transfection. The concentration of G418 was decreased to 500 μg/mL after 14 days. Stably transfected cells were maintained in DMEM containing 100 units/mL penicillin and 100 μg/mL streptomycin supplemented with 10% FCS and 500 μg/mL G418.
as §1

[3] = tested on: cholesterol absorption; experiment: In vivo acute cholesterol absorption; parameters: species or system C57BL/6 mice; details: mice; for In vivo inhibition (%) of cholesterol absorption, Duodenum / In vivo inhibition (%) of cholesterol absorption, Ileum / In vivo inhibition (%) of cholesterol absorption, Jejunum / In vivo inhibition (%) of cholesterol absorption, Liver / In vivo inhibition (%) of cholesterol absorption, Plasma: [3H]cholesterol reduction relative to vehicle
Procedure: In vivo, we first determined the consequences of ezetimibe 1 and amino alcohols 5 and 6 on cholesterol absorption. We therefore gavaged mice with 2 μCi [^3H]cholesterol and 10 mg/kg/day of each compound or vehicle, and radioactivity was measured in plasma, liver, and three equal parts of the intestine (duodenum, jejunum, ileum). Percentage of [^3H]cholesterol reduction is presented relative to vehicle, respectively. […] We therefore increased the dose to 20 mg/kg/day and determined inhibition of cholesterol absorption. The inhibition in duodenum and jejunum was similar to the lower dose, whereas in ileum it raised from 21% to 41% (Table 3). Decreased cholesterol absorption of 5 in the small intestine compared to ezetimibe 1 might be explained by the fact that 2-azetidinones are moderate acyl-coenzyme A:cholesterol acyltransferase inhibitors and their level of activity is highly structure-dependent. It might therefore be speculated that acyl-coenzyme A:cholesterol acyltransferase activity of amino alcohols 5 and 6 and their diastereoisomeric mixtures is altered compared to ezetimibe 1.
Male C57BL/6 mice aged 25–28 weeks were maintained under a 12 h light/12 h dark cycle in a temperature-controlled environment with free access to chow diet (Ssniff, Germany) and water. For 2 days, mice (n = 3–5) were fasted for 4 h and gavaged with corn oil (100 μl) (vehicle) containing ezetimibe 1 (10 mg/kg/day) or compounds 5, 6, and 5/6 (70:30) (10 or 20 mg/kg/day). On day 2, 90 min post vehicle or compound treatment, mice were gavaged with corn oil (200 μl) containing [^3H]cholesterol (2 μCi) ([1,2–3H(N)] cholesterol, 1 mCi/mL, ARC Inc., St. Louis, USA). Plasma, liver, and small intestines were collected 4 h post-gavage. Cholesterol uptake and absorption were determined as previously described.

[4] = MTT cytotoxicity assay in HepG2 cells; assay type: cell-based; details: human, read-out: LC50, HepG2
Procedure: as §2, §3
as §1, with “Following the micellar formation, compounds 1, 5, 6, and 5/6 (70:30) (73 mM stock solution in DMSO) were added to the medium and vortexed to obtain the final concentrations of the compounds (25, 50, 100, 150, 200 μM) and applied to the cells for 1 h.” left out

[5] = gavage 10 mg/kg/day for 2 days, 10 mg/kg/day

Row | SMILES | CC50 at 1 h [1] [µM] | CC50 at 72 h [2] [µM] | In vivo inhibition (%) of cholesterol absorption, Duodenum ([3]; gavage 10 mg/kg/day for 2 days) [%] | In vivo inhibition (%) of cholesterol absorption, Ileum ([3]; gavage 10 mg/kg/day for 2 days) [%] | In vivo inhibition (%) of cholesterol absorption, Jejunum ([3]; gavage 10 mg/kg/day for 2 days) [%] | In vivo inhibition (%) of cholesterol absorption, Liver [3, 5] | In vivo inhibition (%) of cholesterol absorption, Plasma [3, 5] | In vivo inhibition (%) of cholesterol absorption, Duodenum ([3]; gavage 20 mg/kg/day for 2 days) [%] | In vivo inhibition (%) of cholesterol absorption, Ileum ([3]; gavage 20 mg/kg/day for 2 days) [%] | In vivo inhibition (%) of cholesterol absorption, Jejunum ([3]; gavage 20 mg/kg/day for 2 days) [%] | In vivo inhibition (%) of cholesterol absorption, Liver ([3]; gavage 20 mg/kg/day for 2 days) [%] | In vivo inhibition (%) of cholesterol absorption, Plasma ([3]; gavage 20 mg/kg/day for 2 days) [%] | inhibition of [3H]cholesterol in the ileum ([3]; span over the 10 and 20 mg/kg/day groups) | CC50 at 72 h [4] [µM] | reduction of radioactivity in the small intestine ([3]; 10 mg/kg/day, small intestine overall, not statistically significant) [%] | In vivo inhibition (%) of cholesterol absorption, Ileum [3, 5] | In vivo inhibition (%) of cholesterol absorption, Ileum ([3]; gavage 20 mg/kg/day for 2 days, 20 mg/kg/day) | In vivo inhibition (%) of cholesterol absorption, Liver ([3]; gavage 10 mg/kg/day for 2 days) [%] | In vivo inhibition (%) of cholesterol absorption, Plasma ([3]; gavage 10 mg/kg/day for 2 days) [%] | CC50 at 96 h ([4]; 72 h) [µM]
1 | O=C1[C@H](NC[C@@H](O)c2ccc(F)cc2)[C@@H](c2ccc(O)cc2)N1c1ccc(F)cc1 [Compound 6, (3R,4R)-3-[(2S)-2-(4-fluorophenyl)-2-hydroxyethylamino]-1-(4-fluorophenyl)-4-(4-hydroxyphenyl)azetidin-2-one] | > 100 | > 100 | 43 ± 11 | 58 ± 8 | 37 ± 11 | 47% and 47 ± 0 % | 32% and 32 ± 5 % | 35 ± 9 | 60 ± 9 | 26 ± 8 | 49 ± 10 | 38 ± 11 | 58–60% | > 100 | – | – | – | – | – | –
2 | O=C1[C@H](NCC(O)c2ccc(F)cc2)[C@@H](c2ccc(O)cc2)N1c1ccc(F)cc1 (mixture of isomers) [5/6 (70:30), (3R,4R)-3-[(2R/S)-2-(4-fluorophenyl)-2-hydroxyethylamino]-1-(4-fluorophenyl)-4-(4-hydroxyphenyl)azetidin-2-one] | > 100 | > 100 | – | – | – | – | – | 49 ± 7 | 41 ± 21 | 48 ± 9 | 70 ± 5 | 64 ± 7 | – | > 100 | – | – | – | – | – | –
3 | O=C1[C@H](NC[C@H](O)c2ccc(F)cc2)[C@@H](c2ccc(O)cc2)N1c1ccc(F)cc1 [Compound 5] | > 100 | > 100 | 23 ± 18 | – | 23 ± 13 | 44% and 44 ± 6 % | 50% and 50 ± 8 % | 18 ± 14 | – | 19 ± 16 | 33 ± 6 | 52 ± 7 | – | > 100 | ~22 | 21% and 21 ± 20% | 41% and 41 ± 12 % | – | – | –
4 | O=C1[C@H](CC[C@H](O)c2ccc(F)cc2)[C@@H](c2ccc(O)cc2)N1c1ccc(F)cc1 [Compound 1, ezetimibe, reference compound] | > 100 | > 100 | 65 ± 1 | 47 ± 3 | 61 ± 2 | – | – | – | – | – | – | – | – | – | – | – | – | 52 ± 3 | 60 ± 6 | 69.7

From article PMC4237514, “Novel amino-β-lactam derivatives as potent cholesterol absorption inhibitors” (European Journal of Medicinal Chemistry, 2014)
